Measurements from US12421254B2, “KRAS modulators and uses thereof” (Quanta Therapeutics, Inc., priority 2023, dated 2025).
pIC50: −log10 of the molar value.

What was measured:
[1] = biological target: GST-tagged KRAS-G12D (2-169) (Homo sapiens, UniProt P01116, G12D); test: Nucleotide exchange assay (NEA), SOS-mediated, HTRF, KRAS G12D; type: biochemical; settings: Table 4; IC50 extracted at 30 min; 20 nM SOScat; read-out: NEA G12D IC50
Method in brief: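 Compound preincubated 1 h at RT with 0.25 nM GST-KRAS-G12D (2-169) and anti-GST Tb donor, then 20 nM SOS1cat (564-1049) and 150 nM GTP-DY-647P1 added; pH 7.3 HEPES buffer with MgCl2 and DTT. HTRF monitored at RT; % inhibition versus DMSO and no-SOS blank, 4-parameter IC50 taken at 30 min.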

[2] = biological target: GST-tagged KRAS-G12V (2-169) (Homo sapiens, UniProt P01116, G12V); test: Nucleotide exchange assay (NEA), SOS-mediated, HTRF, KRAS G12V; type: biochemical; settings: Table 4; IC50 extracted at 90 min; 80 nM SOS
Sequence of GST-tagged KRAS-G12V (2-169) (P01116 2-169 isoform P01116-2 G12V): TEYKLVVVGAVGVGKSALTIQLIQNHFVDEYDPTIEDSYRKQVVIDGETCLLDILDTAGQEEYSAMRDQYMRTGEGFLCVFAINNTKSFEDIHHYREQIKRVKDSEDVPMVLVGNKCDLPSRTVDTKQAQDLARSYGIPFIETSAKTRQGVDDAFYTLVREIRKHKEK
Method in brief: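 GST-KRAS-G12V (2-169), 0.25 nM, pre-incubated 1 h at RT with compound, then SOS1cat (564-1049) 80 nM and GTP-DY-647P1 150 nM added in HEPES pH 7.3 buffer with MgCl2 and DTT. HTRF via anti-GST Tb cryptate read over 90 min; IC50 from 4-parameter fit at 90 min, blanked to no-SOS reactions.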

[3] = system: phospho-ERK in SW620 (KRAS-G12V) cells; test: pERK In Cell Western (ICW) assay (Method B), SW620; type: cell-based
Method in brief: (§1)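 Here IC50 reflects phospho-ERK suppression after 3 h compound exposure at 37 °C in cells grown in 10% FBS medium. Signal is normalized to DRAQ5 DNA stain and to blank control wells.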

[4] = system: phospho-ERK in GP2D (KRAS-G12D) cells; test: pERK In Cell Western (ICW) assay (Method B), GP2D; type: cell-based
Method in brief: as §1

[5] = Homo sapiens, SW-620, 3 h, Table 4

Sequence of GST-tagged KRAS-G12D (2-169) (P01116 2-169 isoform P01116-2 G12D): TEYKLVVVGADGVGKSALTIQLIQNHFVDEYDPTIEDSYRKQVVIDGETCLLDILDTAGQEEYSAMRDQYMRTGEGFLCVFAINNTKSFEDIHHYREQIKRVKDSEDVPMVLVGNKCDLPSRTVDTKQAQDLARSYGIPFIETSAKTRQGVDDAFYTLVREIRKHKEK

| SMILES | pIC50 [1] | pIC50 [2] | pIC50 [3, 5] | pIC50 ([4]; GP2d, 3 h, Table 4) | pIC50 ([4]; Table 4, 3 hours) | pIC50 ([3]; Table 4, 3 hours) |
| --- | --- | --- | --- | --- | --- | --- |
| N#Cc1c(N)sc2c1C1(CN(c3nc(OCC4(CN5CCOCC5)CC4)nc(N4C[C@H]5CC[C@@H](C4)N5)n3)C1)SC2 [Compound 167, 1-(4-((1R,5S)-3,8-diazabicyclo[3.2.1]octan-3-yl)-6-((1-(morpholinomethyl)cyclopropyl)methoxy)-1,3,5-triazin-2-yl)-2′-amino-6′H-spiro[azetidine-3,4′-thieno[3,4-b]thiophene]-3′-carbonitrile] | > 8.00 | 7.00 to 8.00 | 4.70 to 6.00 | > 8.00 | – | – |
| N#Cc1c(N)sc2c1C1(CC2)CN(c2nc(OC[C@@]34CCCN3C[C@H](F)C4)nc(N3CCC[C@@H](O)[C@@H](O)C3)n2)C1 [Compound 81, 2-amino-1′-[4-[(3S,4R)-3,4-dihydroxyazepan-1-yl]-6-[[(2R,8S)-2-fluoro-1,2,3,5,6,7-hexahydropyrrolizin-8-yl]methoxy]-1,3,5-triazin-2-yl]spiro[5,6-dihydrocyclopenta[b]thiophene-4,3′-azetidine]-3-carbonitrile; 2,2,2-trifluoroacetic acid] | > 8.00 | > 8.00 | 4.70 to 6.00 | 6.00 to 7.00 | – | – |
| CC1(O)CC(F)CN(c2nc(OC[C@@]34CCCN3C[C@H](F)C4)nc(N3CC4(CCc5sc(N)c(C#N)c54)C3)n2)C1 (stereo partly drawn) [Compound 82, 2′-amino-1-(4-(5-fluoro-3-hydroxy-3-methylpiperidin-1-yl)-6-(((2R,7aS)-2-fluorotetrahydro-1H-pyrrolizin-7a(5H)-yl)methoxy)-1,3,5-triazin-2-yl)-5′,6′-dihydrospiro[azetidine-3,4′-cyclopenta[b]thiophene]-3′-carbonitrile] | > 8.00 | > 8.00 | 6.00 to 7.00 | 7.00 to 8.00 | – | – |
| CC(c1cccnc1N)N(C)c1nc(OC[C@@]23CCCN2C[C@H](F)C3)nc(N2CC3(CCc4sc(N)c(C#N)c43)C2)n1 (single isomer, unassigned) [Compound 100A, 2-amino-1′-[4-[[(1*)-1-(2-amino-3-pyridyl)ethyl]-methyl-amino]-6-[[(2R,8S)-2-fluoro-1,2,3,5,6,7-hexahydropyrrolizin-8-yl]methoxy]-1,3,5-triazin-2-yl]spiro[5,6-dihydrocyclopenta[b]thiophene-4,3′-azetidine]-3-carbonitrile] | > 8.00 | > 8.00 | > 8.00 | – | 7.00 to 8.00 | – |
| CCN(c1nc(OCC2CCC3C(=O)N(C)CCN23)nc(N2CC3(C2)SCc2sc(N)c(C#N)c23)n1)C(C)c1cccnc1N (mixture of isomers) [Compound 210, 1′-[4-[[(6SR,8aSR)-2-methyl-1-oxo-3,4,6,7,8,8a-hexahydropyrrolo[1,2-a]pyrazin-6-yl]methoxy]-6-[[(IR)-1-(2-amino-3-pyridyl)ethyl]-ethyl-amino]-1,3,5-triazin-2-yl]-2-amino-spiro[6H-thieno[3,4-b]thiophene-4,3′-azetidine]-3-carbonitrile] | > 8.00 | > 8.00 | 7.00 to 8.00 | 6.00 to 7.00 | – | – |
| N#Cc1c(N)sc2c1C1(CC2)CN(c2nc(OC[C@@]34CCCN3C[C@H](F)C4)nc(N3CCCCC(C#N)C3)n2)C1 (stereo partly drawn) [Compound 74, 2-amino-1′-[4-(3-cyanoazepan-1-yl)-6-[[(2R,8S)-2-fluoro-1,2,3,5,6,7-hexahydropyrrolizin-8-yl]methoxy]-1,3,5-triazin-2-yl]spiro[5,6-dihydrocyclopenta[b]thiophene-4,3′-azetidine]-3-carbonitrile] | 7.00 to 8.00 | > 8.00 | 6.00 to 7.00 | 6.00 to 7.00 | – | – |
| CC(c1nccnc1N)N(CCO)c1nc(OC[C@@]23CCCN2C[C@H](F)C3)nc(N2CC3(CCc4sc(N)c(C#N)c43)C2)n1 (stereo partly drawn) [Compound 124, 2-amino-1′-[4-[1-(3-aminopyrazin-2-yl)ethyl-(2-hydroxyethyl)amino]-6-[[(2R,8S)-2-fluoro-1,2,3,5,6,7-hexahydropyrrolizin-8-yl]methoxy]-1,3,5-triazin-2-yl]spiro[5,6-dihydrocyclopenta[b]thiophene-4,3′-azetidine]-3-carbonitrile] | > 8.00 | > 8.00 | 7.00 to 8.00 | 6.00 to 7.00 | – | – |
| C[C@@]1(O)CCCN(c2nc(OCC3(CN4CCOCC4)CC3)nc(N3CC4(C3)c3c(sc(N)c3C#N)C[C@H]4F)n2)C1 [Compound 70, (5R)-2-amino-5-fluoro-1′-[4-[(3R)-3-hydroxy-3-methyl-1-piperidyl]-6-[[1-(morpholinomethyl)cyclopropyl]methoxy]-1,3,5-triazin-2-yl]spiro[5,6-dihydrocyclopenta[b]thiophene-4,3′-azetidine]-3-carbonitrile] | > 8.00 | > 8.00 | 6.00 to 7.00 | 6.00 to 7.00 | – | – |
| CC(c1ccc(F)nc1N)N(C)c1nc(OC[C@@]23CCCN2C[C@H](F)C3)nc(N2CC3(CCc4sc(N)c(C#N)c43)C2)n1 (stereo partly drawn) [Compound 162, 2-amino-1′-[4-[1-(2-amino-6-fluoro-3-pyridyl)ethyl-methyl-amino]-6-[[(2R,8S)-2-fluoro-1,2,3,5,6,7-hexahydropyrrolizin-8-yl]methoxy]-1,3,5-triazin-2-yl]spiro[5,6-dihydrocyclopenta[b]thiophene-4,3′-azetidine]-3-carbonitrile] | 7.00 to 8.00 | > 8.00 | 7.00 to 8.00 | 6.00 to 7.00 | – | – |
| C[C@@]1(O)C[C@H](F)CN(c2nc(OC[C@@]34CCCN3C[C@H](F)C4)nc(N3CC4(C3)SCc3sc(N)c(C#N)c34)n2)C1 [Compound 143, 2-amino-1′-[4-[[(2R,8S)-2-fluoro-1,2,3,5,6,7-hexahydropyrrolizin-8-yl]methoxy]-6-[(3R,5S)-5-fluoro-3-hydroxy-3-methyl-1-piperidyl]-1,3,5-triazin-2-yl]spiro[6H-thieno[3,4-b]thiophene-4,3′-azetidine]-3-carbonitrile] | > 8.00 | > 8.00 | 7.00 to 8.00 | > 8.00 | – | – |
| CC1(O)CCCCN(c2nc(OC[C@@]34CCCN3C[C@H](F)C4)nc(N3CC4(CCc5sc(N)c(C#N)c54)C3)n2)C1 (stereo partly drawn) [Compound 48, 2-amino-1′-[4-(3-hydroxy-3-methyl-azepan-1-yl)-6-[[(2R,8S)-2-fluoro-1,2,3,5,6,7-hexahydropyrrolizin-8-yl]methoxy]-1,3,5-triazin-2-yl]spiro[5,6-dihydrocyclopenta[b]thiophene-4,3′-azetidine]-3-carbonitrile] | 7.00 to 8.00 | > 8.00 | 6.00 to 7.00 | 6.00 to 7.00 | – | – |
| CC(c1cccnc1N)N(C)c1nc(OCCc2nccn2C)nc(N2CC3(CCc4sc(N)c(C#N)c43)C2)n1 (centres unmarked) [Compound 117, 2-amino-1′-[4-[1-(2-amino-3-pyridyl)ethyl-methyl-amino]-6-[2-(1-methylimidazol-2-yl)ethoxy]-1,3,5-triazin-2-yl]spiro[5,6-dihydrocyclopenta[b]thiophene-4,3′-azetidine]-3-carbonitrile] | 6.00 to 7.00 | 7.00 to 8.00 | 6.00 to 7.00 | 6.00 to 7.00 | – | – |
| C[C@]1(CO)C[C@@H](O)CN1c1nc(OC[C@@]23CCCN2C[C@H](F)C3)nc(N2CC3(CCc4sc(N)c(C#N)c43)C2)n1 [Compound 58, 2-amino-1′-[4-[[(2R,8S)-2-fluoro-1,2,3,5,6,7-hexahydropyrrolizin-8-yl]methoxy]-6-[(2R,4R)-4-hydroxy-2-(hydroxymethyl)-2-methyl-pyrrolidin-1-yl]-1,3,5-triazin-2-yl]spiro[5,6-dihydrocyclopenta[b]thiophene-4,3′-azetidine]-3-carbonitrile] | 7.00 to 8.00 | 7.00 to 8.00 | 4.70 to 6.00 | 4.70 to 6.00 | – | – |
| C[C@H](c1cc(N)ncc1F)N(C)c1nc(OC[C@@]23CCCN2C[C@H](F)C3)nc(N2CC3(CCc4sc(N)c(C#N)c43)C2)n1 [Compound 142, 2-amino-1′-[4-[[(1R)-1-(2-amino-5-fluoro-4-pyridyl)ethyl]-methyl-amino]-6-[[(2R,8S)-2-fluoro-1,2,3,5,6,7-hexahydropyrrolizin-8-yl]methoxy]-1,3,5-triazin-2-yl]spiro[5,6-dihydrocyclopenta[b]thiophene-4,3′-azetidine]-3-carbonitrile] | > 8.00 | > 8.00 | – | – | 7.00 to 8.00 | 7.00 to 8.00 |
